Assay results taken from ChEMBL document CHEMBL2046307, “Plumbagin induces apoptosis in Her2-overexpressing breast cancer cells through the mitochondrial-mediated pathway” (J Nat Prod, 2012).
The source made the active and inactive calls. The calls are words filed in the database; no cut-off is given here.

How the values were obtained:
BT-474 [1] = test: Induction of apoptosis in Her2-overexpressing human BT474 cells assessed as increase in Bax protein level after 24 hrs by Western blot analysis; assay type: functional, cell-based
SK-BR-3 [2] = test: Anticlonogenic activity in Her2-overexpressing human SKBR3 cells assessed as inhibition of colony formation after 6 hrs followed by washout measured after 16 days by crystal violet staining; assay type: functional, cell-based
SK-BR-3 [3] = test: Induction of cell cycle arrest in Her2-overexpressing human SKBR3 cells assessed as increase in DNA accumulation at subG1 phase at 5 uM after 24 hrs by propidium iodide staining-based flow cytometric analysis (reference value: 11%); assay type: functional
SK-BR-3 [4] = test: Cytotoxicity against Her2-overexpressing human SKBR3 cells after 72 hrs by MTT assay; assay type: functional, cell-based; settings: SK-BR-3, 72 h
SK-BR-3 [5] = test: Induction of apoptosis in Her2-overexpressing human SKBR3 cells assessed as increase in BaK protein level after 24 hrs by Western blot analysis; assay type: functional, cell-based
SK-BR-3 [6] = test: Induction of apoptosis in Her2-overexpressing human SKBR3 cells assessed as increase in Bax protein level after 24 hrs by Western blot analysis; assay type: functional, cell-based
BT-474 [7] = test: Anticlonogenic activity in Her2-overexpressing human BT474 cells assessed as inhibition of colony formation after 6 hrs followed by washout measured after 16 days by crystal violet staining; assay type: functional, cell-based
BT-474 [8] = test: Induction of apoptosis in Her2-overexpressing human BT474 cells assessed as decrease in Bcl-2 protein level after 24 hrs by Western blot analysis; assay type: functional, cell-based
SK-BR-3 [9] = test: Cytotoxicity against Her2-overexpressing human SKBR3 cells after 24 to 72 hrs by MTT assay; assay type: functional, cell-based
SK-BR-3 [10] = test: Induction of cell cycle arrest in Her2-overexpressing human SKBR3 cells assessed as increase in DNA accumulation at subG1 phase at 10 uM after 24 hrs by propidium iodide staining-based flow cytometric analysis (reference value: 11%); assay type: functional
BT-474 [11] = test: Induction of apoptosis in Her2-overexpressing human BT474 cells assessed as increase in caspase activity after 6 hrs by fluorescence analysis; assay type: functional, cell-based
BT-474 [12] = test: Induction of apoptosis in Her2-overexpressing human BT474 cells assessed as increase in BaK protein level after 24 hrs by Western blot analysis; assay type: functional, cell-based
BT-474 [13] = test: Induction of apoptosis in Her2-overexpressing human BT474 cells assessed as accumulation at subG1 phase by propidium iodide staining-based flow cytometric analysis; assay type: functional, cell-based
BT-474 [14] = test: Anticlonogenic activity in Her2-overexpressing human BT474 cells assessed as inhibition of colony formation at 1 uM after 6 hrs followed by washout measured after 16 days by crystal violet staining; assay type: functional
SK-BR-3 [15] = test: Induction of apoptosis in Her2-overexpressing human SKBR3 cells assessed as decrease in Bcl-2 protein level after 24 hrs by Western blot analysis; assay type: functional, cell-based
BT-474 [16] = test: Cytotoxicity against Her2-overexpressing human BT474 cells after 24 hrs by MTT assay; assay type: functional, cell-based; settings: BT-474, 24 h
SK-BR-3 [17] = test: Anticlonogenic activity in Her2-overexpressing human SKBR3 cells assessed as inhibition of colony formation at 1 uM after 6 hrs followed by washout measured after 16 days by crystal violet staining; assay type: functional
SK-BR-3 [18] = test: Induction of cell cycle arrest in Her2-overexpressing human SKBR3 cells assessed as increase in DNA accumulation at subG1 phase after 24 hrs by propidium iodide staining-based flow cytometric analysis; assay type: functional
BT-474 [19] = test: Ratio of IC50 for Her2-overexpressing human BT474 cells after 24 hrs to IC50 for Her2-overexpressing human BT474 cells after 72 hrs; assay type: functional
SK-BR-3 [20] = test: Cytotoxicity against Her2-overexpressing human SKBR3 cells after 24 hrs by MTT assay; assay type: functional, cell-based; settings: SK-BR-3, 24 h
MDA-MB-231 = test: Antitumor activity against human MDA-MB-231 cells xenografted in nude mouse assessed as decrease in tumor volume; assay type: functional; set-up: scale not given: the % may be the effect or the level left
BT-474 [21] = test: Induction of apoptosis in Her2-overexpressing human BT474 cells assessed as increase in caspase activity at 10 uM after 6 hrs by fluorescence analysis relative to control; assay type: functional
BT-474 [22] = test: Cytotoxicity against Her2-overexpressing human BT474 cells after 72 hrs by MTT assay; assay type: functional, cell-based; settings: BT-474, 72 h
SK-BR-3 [23] = test: Induction of apoptosis in Her2-overexpressing human SKBR3 cells assessed as increase in caspase activity after 6 hrs by fluorescence analysis relative to control; assay type: functional
SK-BR-3 [24] = test: Induction of apoptosis in Her2-overexpressing human SKBR3 cells assessed as increase in caspase activity after 6 hrs by fluorescence analysis; assay type: functional, cell-based
SK-BR-3 [25] = test: Induction of cell cycle arrest in Her2-overexpressing human SKBR3 cells assessed as increase in DNA accumulation at subG1 phase at 2.5 uM after 24 hrs by propidium iodide staining-based flow cytometric analysis (reference value: 11%); assay type: functional
BT-474 [26] = test: Cytotoxicity against Her2-overexpressing human BT474 cells after 24 to 72 hrs by MTT assay; assay type: functional, cell-based

`CC1=CC(=O)c2c(O)cccc2C1=O` [PLUMBAGIN] was tested, and the Activity (BT-474 [1]) was “Dose-dependent effect”, the Activity (SK-BR-3 [2]) was “Dose-dependent effect” and the Activity (SK-BR-3 [3]) was 43%. For the same compound, the IC50 (SK-BR-3 [4]) was 1800 nM, the Activity (SK-BR-3 [5]) was “Dose-dependent effect” and the Activity (SK-BR-3 [6]) was “Dose-dependent effect”. The Activity (BT-474 [7]) was “Dose-dependent effect”, the Activity (BT-474 [8]) was “Active” and the Activity (SK-BR-3 [9]) was “Dose-dependent effect”. The Activity (SK-BR-3 [10]) was 73%, the Activity (BT-474 [11]) was “Dose-dependent effect” and the Activity (BT-474 [12]) was “Dose-dependent effect”. For the same compound, the Activity (BT-474 [13]) was “inactive”, the inhibition at 1 µM (BT-474 [14]) was 40% and the Activity (SK-BR-3 [15]) was “Active”. The IC50 (BT-474 [16]) was 1800 nM, the inhibition at 1 µM (SK-BR-3 [17]) was 50% and the Activity (SK-BR-3 [18]) was “Dose-dependent effect”. The “Ratio IC50” value (BT-474 [19]) was 2, the IC50 (SK-BR-3 [20]) was 3200 nM and the Activity (MDA-MB-231) was 70%. The “fold change (FC)” value (BT-474 [21]) was 5, the IC50 (BT-474 [22]) was 800 nM and the “fold change (FC)” value (SK-BR-3 [23]) was 4. The Activity (SK-BR-3 [24]) was “Dose-dependent effect”, the Activity (SK-BR-3 [25]) was 20% and the Activity (BT-474 [26]) was “Dose-dependent effect”.
